Measured values: ChEMBL document CHEMBL4507285, “Data for DCP probe MRL-SYKi” (2021)
Active and inactive are the calls of the source. The rule behind the calls is not given here.

Key:
[1] = molecular target: Calcium/calmodulin-dependent protein kinase kinase 1 (Homo sapiens) (UniProt Q8N5S9); conditions: Compound concentration 100.0 nM
[2] = system: Tyrosine-protein kinase ABL1 (Homo sapiens), P00519 [F317L]; conditions: Compound concentration 100.0 nM
[3] = molecular target: Receptor-type tyrosine-protein kinase FLT3 (Homo sapiens) (UniProt P36888); conditions: Compound concentration 100.0 nM
[4] = molecular target: Fibroblast growth factor receptor 3 (Homo sapiens) (UniProt P22607); conditions: Compound concentration 100.0 nM
[5] = system: Epidermal growth factor receptor (Homo sapiens), P00533 [G719S]; conditions: Compound concentration 100.0 nM
[6] = molecular target: 5-hydroxytryptamine receptor 2B (Homo sapiens, UniProt P41595); assay: GPCRScan assay: inhibition of 5-HT2B; design: radioligand conc. used [nm] 1.0 – 2.0, parental cells stable HEK
[7] = molecular target: GABA-A receptor; anion channel (Rattus norvegicus) (UniProt O09028+P15431+P18506+P18508+P19969+P20236+P23574+P23576+P28471+P28473+P30191+P62813+P63079+P63138+Q91ZM7+Q9ES14); conditions: Compound concentration 10.0 uM
[8] = molecular target: Mitogen-activated protein kinase 15 (Homo sapiens) (UniProt Q8TD08); conditions: Compound concentration 100.0 nM
LIM domain kinase 1 = LIM domain kinase 1 (Homo sapiens, UniProt P53667); assay: Inhibition of LIMK1 at compound concentration of 10.0 uM using the ScanMax (DiscoverX)
[9] = molecular target: Mitogen-activated protein kinase kinase kinase 15 (Homo sapiens) (UniProt Q6ZN16); conditions: Compound concentration 100.0 nM
[10] = GPCRScan assay: inhibition of GABA/PBR; design: species or system Rattus norvegicus; radioligand conc. used [nm] 0.3 – 2.0, parental cells brain tissue
[11] = molecular target: Serine/threonine-protein kinase LATS2 (Homo sapiens) (UniProt Q9NRM7); conditions: Compound concentration 100.0 nM
[12] = molecular target: Leukocyte tyrosine kinase receptor (Homo sapiens) (UniProt P29376); conditions: Compound concentration 100.0 nM
[13] = molecular target: Mitotic checkpoint serine/threonine-protein kinase BUB1 (Homo sapiens) (UniProt O43683); conditions: Compound concentration 100.0 nM
[14] = molecular target: Muscarinic acetylcholine receptor M1 (Homo sapiens) (UniProt P11229); conditions: Compound concentration 10.0 uM
[15] = molecular target: 5-hydroxytryptamine receptor 6 (Homo sapiens) (UniProt P50406); conditions: Compound concentration 10.0 uM
[16] = molecular target: Serine/threonine-protein kinase PAK 2 (Homo sapiens) (UniProt Q13177); conditions: Compound concentration 100.0 nM
[17] = molecular target: 5-hydroxytryptamine receptor 1E (Homo sapiens) (UniProt P28566); conditions: Compound concentration 10.0 uM
[18] = molecular target: High affinity nerve growth factor receptor (Homo sapiens, UniProt P04629); assay: Invitrogen kinase assay (NTRK1)
[19] = molecular target: Tyrosine-protein kinase Fgr (Homo sapiens, UniProt P09769); assay: Invitrogen kinase assay (FGR)
[20] = molecular target: Tyrosine-protein kinase Fer (Homo sapiens, UniProt P16591); assay: Invitrogen kinase assay (FER)
[21] = molecular target: Proto-oncogene tyrosine-protein kinase Src (Homo sapiens, UniProt P12931); assay: Invitrogen kinase assay (SRC)
[22] = molecular target: Tyrosine-protein kinase SYK (Homo sapiens, UniProt P43405); assay: Inhibition of SYK at compound concentration of 10.0 uM using the ScanMax (DiscoverX)
[23] = molecular target: Tyrosine-protein kinase ZAP-70 (Homo sapiens, UniProt P43403); assay: Invitrogen kinase assay (ZAP70)
[24] = molecular target: NT-3 growth factor receptor (Homo sapiens, UniProt Q16288); assay: Invitrogen kinase assay (NTRK3)
[25] = molecular target: Tyrosine-protein kinase Fyn (Homo sapiens, UniProt P06241); assay: Invitrogen kinase assay (FYN)
[26] = molecular target: Sodium-dependent noradrenaline transporter (Homo sapiens, UniProt P23975); assay: GPCRScan assay: inhibition of NET; design: radioligand conc. used [nm] 1.3 – 5.0, parental cells stable HEK
[27] = molecular target: Tyrosine-protein kinase JAK2 (Homo sapiens, UniProt O60674); assay: Invitrogen kinase assay (JAK2)

Sequence of Calcium/calmodulin-dependent protein kinase kinase 1 (Homo sapiens) (Q8N5S9 whole entry, looked up): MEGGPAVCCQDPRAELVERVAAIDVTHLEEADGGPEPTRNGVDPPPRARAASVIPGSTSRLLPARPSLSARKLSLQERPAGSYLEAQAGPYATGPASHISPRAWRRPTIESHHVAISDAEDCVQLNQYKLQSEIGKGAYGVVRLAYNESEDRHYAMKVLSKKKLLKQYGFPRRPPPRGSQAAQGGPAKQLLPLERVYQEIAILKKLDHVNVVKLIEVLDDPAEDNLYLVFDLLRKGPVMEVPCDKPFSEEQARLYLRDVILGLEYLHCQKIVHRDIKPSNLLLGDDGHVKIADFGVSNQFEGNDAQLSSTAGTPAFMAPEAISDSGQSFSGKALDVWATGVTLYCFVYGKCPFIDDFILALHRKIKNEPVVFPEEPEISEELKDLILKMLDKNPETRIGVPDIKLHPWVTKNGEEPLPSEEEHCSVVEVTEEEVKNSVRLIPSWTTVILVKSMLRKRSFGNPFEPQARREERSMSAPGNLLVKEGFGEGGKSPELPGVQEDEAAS
Sequence of Serine/threonine-protein kinase PAK 2 (Homo sapiens) (Q13177 whole entry): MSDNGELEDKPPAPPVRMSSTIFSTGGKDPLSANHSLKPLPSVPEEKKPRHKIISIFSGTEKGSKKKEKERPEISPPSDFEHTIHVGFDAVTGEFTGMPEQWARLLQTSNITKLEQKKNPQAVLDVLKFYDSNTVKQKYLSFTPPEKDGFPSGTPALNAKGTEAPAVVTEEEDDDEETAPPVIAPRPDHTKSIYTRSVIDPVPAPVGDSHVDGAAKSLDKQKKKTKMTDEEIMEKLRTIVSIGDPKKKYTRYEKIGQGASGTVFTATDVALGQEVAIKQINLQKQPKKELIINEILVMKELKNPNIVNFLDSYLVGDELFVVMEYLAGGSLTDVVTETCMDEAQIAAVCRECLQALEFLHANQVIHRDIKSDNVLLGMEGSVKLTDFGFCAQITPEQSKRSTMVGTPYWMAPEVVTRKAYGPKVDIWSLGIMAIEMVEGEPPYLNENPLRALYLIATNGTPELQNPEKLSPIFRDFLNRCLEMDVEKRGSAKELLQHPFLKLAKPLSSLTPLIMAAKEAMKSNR
Sequence of Serine/threonine-protein kinase LATS2 (Homo sapiens) (Q9NRM7 whole entry): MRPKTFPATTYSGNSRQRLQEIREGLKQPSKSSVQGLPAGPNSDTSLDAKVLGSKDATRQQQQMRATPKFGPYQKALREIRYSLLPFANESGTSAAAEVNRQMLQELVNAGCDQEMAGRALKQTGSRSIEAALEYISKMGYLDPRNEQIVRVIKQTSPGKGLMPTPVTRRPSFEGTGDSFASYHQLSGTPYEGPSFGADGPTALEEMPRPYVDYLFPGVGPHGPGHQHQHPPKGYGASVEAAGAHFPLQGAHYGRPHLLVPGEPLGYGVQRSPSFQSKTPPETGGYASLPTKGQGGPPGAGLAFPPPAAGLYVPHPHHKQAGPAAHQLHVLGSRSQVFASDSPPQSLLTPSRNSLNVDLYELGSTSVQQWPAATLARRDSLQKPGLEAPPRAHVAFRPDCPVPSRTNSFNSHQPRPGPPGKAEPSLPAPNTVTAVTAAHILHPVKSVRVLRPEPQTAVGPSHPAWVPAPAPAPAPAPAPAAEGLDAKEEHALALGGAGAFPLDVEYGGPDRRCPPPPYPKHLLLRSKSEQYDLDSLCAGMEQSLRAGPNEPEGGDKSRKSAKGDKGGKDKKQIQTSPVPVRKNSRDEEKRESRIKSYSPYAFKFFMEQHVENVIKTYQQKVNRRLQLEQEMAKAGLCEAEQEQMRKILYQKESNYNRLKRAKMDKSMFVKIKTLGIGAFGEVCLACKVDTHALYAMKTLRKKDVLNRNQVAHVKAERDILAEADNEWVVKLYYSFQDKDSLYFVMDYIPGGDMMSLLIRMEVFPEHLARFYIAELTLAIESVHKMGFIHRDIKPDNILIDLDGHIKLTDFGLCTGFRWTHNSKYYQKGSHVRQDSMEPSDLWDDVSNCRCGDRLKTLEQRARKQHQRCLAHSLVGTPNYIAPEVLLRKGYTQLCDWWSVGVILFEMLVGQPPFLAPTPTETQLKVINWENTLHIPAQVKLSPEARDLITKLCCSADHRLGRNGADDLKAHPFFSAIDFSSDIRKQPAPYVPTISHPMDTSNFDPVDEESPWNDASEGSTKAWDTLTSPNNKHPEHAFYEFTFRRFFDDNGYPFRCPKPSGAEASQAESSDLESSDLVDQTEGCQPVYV
Sequence of Mitogen-activated protein kinase kinase kinase 15 (Homo sapiens) (Q6ZN16 whole entry): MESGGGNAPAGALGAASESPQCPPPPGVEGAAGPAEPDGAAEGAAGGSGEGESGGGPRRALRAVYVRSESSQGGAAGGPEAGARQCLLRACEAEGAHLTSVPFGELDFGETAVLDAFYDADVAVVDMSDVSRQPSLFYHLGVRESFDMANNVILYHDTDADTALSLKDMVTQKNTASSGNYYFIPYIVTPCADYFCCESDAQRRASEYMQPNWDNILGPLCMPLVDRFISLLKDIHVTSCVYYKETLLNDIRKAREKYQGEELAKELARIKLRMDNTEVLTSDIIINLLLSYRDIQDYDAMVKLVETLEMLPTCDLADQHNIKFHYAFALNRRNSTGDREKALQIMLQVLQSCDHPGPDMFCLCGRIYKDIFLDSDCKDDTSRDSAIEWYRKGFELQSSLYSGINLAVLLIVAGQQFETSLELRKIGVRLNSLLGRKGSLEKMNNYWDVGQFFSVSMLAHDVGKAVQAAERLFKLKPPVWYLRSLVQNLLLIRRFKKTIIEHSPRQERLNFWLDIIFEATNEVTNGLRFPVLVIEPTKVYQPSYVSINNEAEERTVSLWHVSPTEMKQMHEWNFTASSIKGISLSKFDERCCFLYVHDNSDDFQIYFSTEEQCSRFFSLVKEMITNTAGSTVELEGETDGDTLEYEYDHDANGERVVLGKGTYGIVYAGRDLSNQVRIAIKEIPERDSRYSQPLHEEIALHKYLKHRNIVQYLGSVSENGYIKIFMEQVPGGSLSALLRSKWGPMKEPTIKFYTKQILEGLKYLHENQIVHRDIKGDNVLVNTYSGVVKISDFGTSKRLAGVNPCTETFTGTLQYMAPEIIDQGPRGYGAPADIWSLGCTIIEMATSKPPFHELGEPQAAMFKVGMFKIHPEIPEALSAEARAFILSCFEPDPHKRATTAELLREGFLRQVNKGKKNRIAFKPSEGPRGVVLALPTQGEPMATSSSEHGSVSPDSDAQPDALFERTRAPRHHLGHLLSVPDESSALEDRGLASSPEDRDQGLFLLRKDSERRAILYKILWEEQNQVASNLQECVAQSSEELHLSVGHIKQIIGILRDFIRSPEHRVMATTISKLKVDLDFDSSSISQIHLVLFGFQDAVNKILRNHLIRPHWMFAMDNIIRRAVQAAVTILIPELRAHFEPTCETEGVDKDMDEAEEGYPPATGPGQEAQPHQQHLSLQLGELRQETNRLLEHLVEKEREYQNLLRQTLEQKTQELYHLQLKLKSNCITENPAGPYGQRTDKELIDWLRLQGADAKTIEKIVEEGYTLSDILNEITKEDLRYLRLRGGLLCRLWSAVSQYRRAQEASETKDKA
Sequence of Mitotic checkpoint serine/threonine-protein kinase BUB1 (Homo sapiens) (O43683 whole entry, looked up): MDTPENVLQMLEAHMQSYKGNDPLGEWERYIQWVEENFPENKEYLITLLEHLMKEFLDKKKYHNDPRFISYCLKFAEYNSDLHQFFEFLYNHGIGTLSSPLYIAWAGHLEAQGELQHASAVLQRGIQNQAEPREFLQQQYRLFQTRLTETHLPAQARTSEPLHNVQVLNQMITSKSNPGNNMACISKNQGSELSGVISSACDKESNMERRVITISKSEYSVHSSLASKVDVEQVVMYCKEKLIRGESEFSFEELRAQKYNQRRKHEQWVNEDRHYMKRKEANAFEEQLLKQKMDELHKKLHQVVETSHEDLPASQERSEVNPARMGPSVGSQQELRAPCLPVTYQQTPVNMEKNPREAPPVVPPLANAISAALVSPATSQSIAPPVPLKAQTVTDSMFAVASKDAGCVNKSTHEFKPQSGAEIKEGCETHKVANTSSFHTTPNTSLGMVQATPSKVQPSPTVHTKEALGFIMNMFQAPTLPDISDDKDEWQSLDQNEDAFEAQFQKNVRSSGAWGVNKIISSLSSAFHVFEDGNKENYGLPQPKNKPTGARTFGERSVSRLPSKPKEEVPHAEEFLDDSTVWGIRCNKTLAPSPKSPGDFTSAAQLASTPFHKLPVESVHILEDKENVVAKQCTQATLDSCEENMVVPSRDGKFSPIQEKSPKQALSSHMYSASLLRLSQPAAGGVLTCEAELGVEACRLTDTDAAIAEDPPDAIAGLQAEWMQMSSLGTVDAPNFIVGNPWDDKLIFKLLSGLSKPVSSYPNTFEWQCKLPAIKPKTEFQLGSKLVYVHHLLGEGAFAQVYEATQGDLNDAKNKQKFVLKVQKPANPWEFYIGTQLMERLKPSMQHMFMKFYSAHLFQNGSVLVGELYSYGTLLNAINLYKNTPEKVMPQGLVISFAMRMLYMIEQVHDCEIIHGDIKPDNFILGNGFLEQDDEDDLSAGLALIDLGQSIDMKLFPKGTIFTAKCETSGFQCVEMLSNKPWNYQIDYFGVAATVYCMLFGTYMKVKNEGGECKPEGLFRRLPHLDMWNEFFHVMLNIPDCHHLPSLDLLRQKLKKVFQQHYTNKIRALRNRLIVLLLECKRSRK
Sequence of Mitogen-activated protein kinase 15 (Homo sapiens) (Q8TD08 whole entry, the tested form may be a part): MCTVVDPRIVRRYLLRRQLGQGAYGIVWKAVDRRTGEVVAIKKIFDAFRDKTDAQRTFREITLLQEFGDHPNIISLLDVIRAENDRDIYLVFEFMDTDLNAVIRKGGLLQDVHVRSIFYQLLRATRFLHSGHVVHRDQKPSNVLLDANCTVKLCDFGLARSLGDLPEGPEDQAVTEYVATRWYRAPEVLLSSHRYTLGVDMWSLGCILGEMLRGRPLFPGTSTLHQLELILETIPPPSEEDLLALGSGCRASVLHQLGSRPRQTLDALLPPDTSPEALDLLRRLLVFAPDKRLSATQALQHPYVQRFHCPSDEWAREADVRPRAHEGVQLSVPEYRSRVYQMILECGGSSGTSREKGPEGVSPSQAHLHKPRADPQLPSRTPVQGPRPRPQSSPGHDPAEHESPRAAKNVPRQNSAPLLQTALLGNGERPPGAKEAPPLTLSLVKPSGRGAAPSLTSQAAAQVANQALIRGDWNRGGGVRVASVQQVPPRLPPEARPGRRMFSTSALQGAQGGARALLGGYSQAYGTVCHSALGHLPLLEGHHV

SMILES | residual activity [1] [%] | residual activity [2] [%] | residual activity [3] [%] | residual activity [4] [%] | residual activity [5] [%] | inhibition [7] [%] | residual activity [8] [%] | residual activity [9] [%] | residual activity [11] [%] | residual activity [12] [%] | residual activity [13] [%] | residual activity [16] [%] | also measured
Cc1ccc(-c2cnc([C@@]3(O)CC[C@H](C(=O)O)C(C)(C)C3)s2)cc1Nc1cccc(C(F)(F)F)n1 [MRL-SYKi-NC] | 84.1 | 99.1 | 100 | 100 | 99.3 | 20.3 | 80.3 | 85 | 90.6 | 75.8 | 100 | 89.5 | Ki [6]: 1060 nM; Kd (LIM domain kinase 1): > 10000 nM (not active); Ki [10]: 774 nM; pKi [10]: 6.11; inhibition [14]: -6.43%; inhibition [15]: 6.66%
Cc1cc(Nc2nccc(C)n2)cc(-c2cnc([C@@]3(O)CC[C@H](C(=O)O)C(C)(C)C3)s2)c1 [MRL-SYKi] | 66.6 | 100 | 100 | 88.2 | 100 | -2.68 | 100 | 80.5 | 100 | 100 | 100 | 100 | inhibition [17]: 11.4%; IC50 [18]: 105 nM (not active); IC50 [19]: 185 nM (not active); IC50 [20]: 232 nM (not active); IC50 [21]: 100 nM (not active); Kd [22]: 1.8 nM (active); IC50 [23]: 24 nM (active); IC50 [24]: 120 nM (not active); IC50 [25]: 205 nM (not active); Ki [26]: 7710 nM; IC50 [27]: 242 nM (not active)
